According to patent publication US20200131669A1, “CYCLIC PEPTIDE COMPOUND HAVING HIGH MEMBRANE PERMEABILITY, AND LIBRARY CONTAINING SAME” (Chugai Seiyaku Kabushiki Kaisha, priority 2017, published 2020):
Starred links: 1 amine or outer side, 2 acyl side, 3 side chain; linkers in the order of their positions; H or OH if unused. Positions of bridges follow the written chain, without caps; N, C: chain ends. Non-standard residues stand in square brackets, D forms with d. Residues, ends and D or L forms follow the SMILES beside them. *: point of attachment. Gly(NCH2CH2Ph) = O=C(O)CNCCc1ccccc1; X9 = O=C(CN(CCOc1ccccc1)[*:1])[*:2]; Gly(N-(CH2)2OEt) = CCOCCNCC(=O)O; NMeF = CN[C@@H](Cc1ccccc1)C(=O)O; NMeL = CN[C@@H](CC(C)C)C(=O)O; NMeV = CN[C@H](C(=O)O)C(C)C; NMeAbu = CC[C@H](NC)C(=O)O; NPentylGly = CCCCCNCC(=O)O; NMeA = CN[C@@H](C)C(=O)O; Piperidide = C1CCN(*)CC1; Abu = CC[C@H](N)C(=O)O; NBuGly = CCCCNCC(=O)O; Sar = CNCC(=O)O; tBu = CC(C)(C)*

Assay: Caco-2 membrane permeability, improved method as used in the following Examples (96-well, 20 to 24 h preincubation)
Type: in vitro ADME
Conditions: human, Caco-2, Caco-2
Outline: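 Papp (cm/sec) was derived from LC/MS of basal samples collected 180 min after apical dosing in FaSSIF/HBSS pH 6.0 with 1% DMSO, against a basal HBSS pH 7.4 receiver containing 4% BSA. Three-week Caco-2 cultures were first preincubated with compound in DMEM+FaSSIF at 37 °C for 20–24 h.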

Compound | Papp A→B at 180 min
CCCCCN1CC(=O)N(C)[C@@H](CC(C)C)C(=O)N[C@H](C(=O)N2CCCCC2)CC(=O)N(C)[C@@H](C(C)C)C(=O)N[C@@H](CC(C)C)C(=O)N(C)[C@@H](CC)C(=O)N(C)[C@@H](Cc2ccccc2)C(=O)N[C@@H](C)C(=O)N(C)[C@@H](Cc2ccccc2)C(=O)N(C)[C@@H](CC)C(=O)N[C@@H]([C@@H](C)O)C1=O [pd403] ([NMeV]L[NMeAbu][NMeF]A[NMeF][NMeAbu]T[NPentylGly][NMeL]D-Piperidide; lactam N-11) | 9 ×10⁻⁶ cm/s
CCCCCN1CC(=O)N(C)[C@@H](Cc2ccccc2)C(=O)N(C)[C@@H](CC(C)C)C(=O)N[C@@H](COC(C)(C)C)C(=O)N(C)[C@@H](CC(C)C)C(=O)N[C@H](C(=O)N2CCCCC2)CC(=O)N(C)CC(=O)N(C)[C@@H](Cc2ccccc2)C(=O)N[C@@H](C(C)C)C(=O)N(C)[C@@H](C)C(=O)N[C@@H]([C@@H](C)O)C1=O [pd404] ([Sar][NMeF]V[NMeA]T[NPentylGly][NMeF][NMeL]S(tBu)[NMeL]D-Piperidide; lactam N-11) | 1.3 ×10⁻⁶ cm/s
CCCCCN1CC(=O)N(C)[C@@H](Cc2ccccc2)C(=O)N[C@@H](CC(C)C)C(=O)N(C)[C@@H](CC)C(=O)N[C@@H]([C@@H](C)O)C(=O)N(C)CC(=O)N(C)[C@@H](Cc2ccccc2)C(=O)N(C)[C@@H](CC)C(=O)N[C@@H](COC(C)(C)C)C(=O)N(C)[C@@H](CC(C)C)C(=O)N[C@H](C(=O)N2CCCCC2)CC1=O [pd405] ([NPentylGly][NMeF]L[NMeAbu]T[Sar][NMeF][NMeAbu]S(tBu)[NMeL]D-Piperidide; lactam N-11) | 2.2 ×10⁻⁶ cm/s
CCCCCN1CC(=O)N[C@@H]([C@@H](C)O)C(=O)N(C)[C@@H](C)C(=O)N(C)[C@@H](CC(C)C)C(=O)N[C@@H](COC(C)(C)C)C(=O)N(C)[C@@H](Cc2ccccc2)C(=O)N(C)[C@@H](CC(C)C)C(=O)N[C@H](C(=O)N2CCCCC2)CC(=O)N[C@H](C)C(=O)N(C)[C@@H](Cc2ccccc2)C(=O)N[C@@H](C(C)C)C1=O [pd407] ([dA][NMeF]V[NPentylGly]T[NMeA][NMeL]S(tBu)[NMeF][NMeL]D-Piperidide; lactam N-11) | 3 ×10⁻⁶ cm/s
CCCCCN1CC(=O)N[C@@H]([C@@H](C)O)C(=O)N(C)CC(=O)N(C)[C@@H](CC(C)C)C(=O)N[C@H](C(=O)N2CCCCC2)CC(=O)N(C)[C@@H](CC)C(=O)N[C@@H](CC(C)C)C(=O)N(C)[C@@H](CC(C)C)C(=O)N(C)[C@@H](Cc2ccccc2)C(=O)N[C@@H](CC)C(=O)N(C)[C@@H](Cc2ccccc2)C1=O [pd408] ([NMeAbu]L[NMeL][NMeF][Abu][NMeF][NPentylGly]T[Sar][NMeL]D-Piperidide; lactam N-11) | 1.8 ×10⁻⁶ cm/s
CC[C@H]1C(=O)N[C@@H]([C@@H](C)O)C(=O)N(CCc2ccccc2)CC(=O)N(C)[C@@H](CC(C)C)C(=O)N[C@H](COC(C)(C)C)C(=O)N(C)[C@@H](CC(C)C)C(=O)N(C)[C@@H](CC)C(=O)N[C@H](C(=O)N2CCCCC2)CC(=O)N[C@H](C)C(=O)N(C)[C@@H](Cc2ccccc2)C(=O)N[C@@H](CC(C)C)C(=O)N1C [pd409] ([dA][NMeF]L[NMeAbu]T[Gly(NCH2CH2Ph)][NMeL][dS](tBu)[NMeL][NMeAbu]D-Piperidide; lactam N-11) | 1.4 ×10⁻⁶ cm/s
CC[C@H]1C(=O)N(C)[C@@H](Cc2ccccc2)C(=O)N[C@@H](C)C(=O)N(C)[C@@H](CC(C)C)C(=O)N(C)[C@@H](CC)C(=O)N[C@@H]([C@@H](C)O)C(=O)N(CCc2ccccc2)CC(=O)N(C)[C@@H](CC(C)C)C(=O)N[C@H](C(=O)N2CCCCC2)CC(=O)N(C)[C@@H](C(C)C)C(=O)N[C@@H](CC(C)C)C(=O)N1C [pd410] ([NMeV]L[NMeAbu][NMeF]A[NMeL][NMeAbu]T[Gly(NCH2CH2Ph)][NMeL]D-Piperidide; lactam N-11) | 6 ×10⁻⁶ cm/s
CC[C@H](C)[C@@H]1NC(=O)[C@H](CC(C)C)N(C)C(=O)CN(C)C(=O)C[C@@H](C(=O)N2CCCCC2)NC(=O)[C@H](CC(C)C)N(C)C(=O)[C@@H](COC(C)(C)C)NC(=O)[C@H](CC)N(C)C(=O)[C@H](Cc2ccccc2)N(C)C(=O)CN(CCc2ccccc2)C(=O)[C@H]([C@@H](C)O)NC(=O)[C@H](CC)N(C)C1=O [pd411] ([Sar][NMeL]I[NMeAbu]T[Gly(NCH2CH2Ph)][NMeF][NMeAbu][dS](tBu)[NMeL]D-Piperidide; lactam N-11) | 3.3 ×10⁻⁶ cm/s
CC[C@H]1C(=O)N[C@@H]([C@@H](C)O)C(=O)N(C)CC(=O)N(C)[C@@H](Cc2ccccc2)C(=O)N(C)[C@@H](CC)C(=O)N[C@@H](COC(C)(C)C)C(=O)N(C)[C@@H](CC(C)C)C(=O)N[C@H](C(=O)N2CCCCC2)CC(=O)N(CCc2ccccc2)CC(=O)N(C)[C@@H](CC(C)C)C(=O)N[C@@H](CC(C)C)C(=O)N1C [pd412] ([Gly(NCH2CH2Ph)][NMeL]L[NMeAbu]T[Sar][NMeF][NMeAbu]S(tBu)[NMeL]D-Piperidide; lactam N-11) | 1.5 ×10⁻⁶ cm/s
CC[C@H](C)[C@@H]1NC(=O)[C@H](CC(C)C)N(C)C(=O)[C@@H](CC(C)C)NC(=O)C[C@@H](C(=O)N2CCCCC2)NC(=O)[C@H](CC(C)C)N(C)C(=O)[C@H](Cc2ccccc2)N(C)C(=O)[C@H](COC(C)(C)C)NC(=O)CN(CCc2ccccc2)C(=O)CN(C)C(=O)[C@H]([C@@H](C)O)NC(=O)[C@H](CC)N(C)C1=O [pd413] ([dL][NMeL]I[NMeAbu]T[Sar][Gly(NCH2CH2Ph)]S(tBu)[NMeF][NMeL]D-Piperidide; lactam N-11) | 1.5 ×10⁻⁶ cm/s
CC[C@H](C)[C@@H]1NC(=O)[C@H](CC(C)C)N(C)C(=O)[C@@H](C)NC(=O)C[C@@H](C(=O)N2CCCCC2)NC(=O)[C@H](CC)N(C)C(=O)[C@H](Cc2ccccc2)N(C)C(=O)[C@H](COC(C)(C)C)NC(=O)[C@H](CC(C)C)N(C)C(=O)[C@H](CC)N(C)C(=O)[C@H]([C@@H](C)O)NC(=O)CN(CCc2ccccc2)C1=O [pd414] ([dA][NMeL]I[Gly(NCH2CH2Ph)]T[NMeAbu][NMeL]S(tBu)[NMeF][NMeAbu]D-Piperidide; lactam N-11) | 1.6 ×10⁻⁶ cm/s
CC[C@@H]1NC(=O)[C@H](Cc2ccccc2)N(C)C(=O)[C@H](CC(C)C)N(C)C(=O)[C@H](CC(C)C)NC(=O)[C@H](CC)N(C)C(=O)C[C@@H](C(=O)N2CCCCC2)NC(=O)[C@H](CC(C)C)N(C)C(=O)CN(C)C(=O)[C@H]([C@@H](C)O)NC(=O)CN(CCc2ccccc2)C(=O)[C@H](CC(C)C)N(C)C1=O [pd415] ([NMeAbu]L[NMeL][NMeF][Abu][NMeL][Gly(NCH2CH2Ph)]T[Sar][NMeL]D-Piperidide; lactam N-11) | 3.3 ×10⁻⁶ cm/s
CCOCCN1CC(=O)N(C)[C@@H](CC(C)C)C(=O)N[C@@H](COC(C)(C)C)C(=O)N(C)[C@@H](Cc2ccccc2)C(=O)N(C)[C@@H](CC)C(=O)N[C@H](C(=O)N2CCCCC2)CC(=O)N[C@H](CC(C)C)C(=O)N(C)[C@@H](Cc2ccccc2)C(=O)N[C@@H](CC(C)C)C(=O)N(C)[C@@H](CC)C(=O)N[C@@H]([C@@H](C)O)C1=O [pd416] ([dL][NMeF]L[NMeAbu]T[Gly(N-(CH2)2OEt)][NMeL]S(tBu)[NMeF][NMeAbu]D-Piperidide; lactam N-11) | 3.1 ×10⁻⁶ cm/s
CCOCCN1CC(=O)N(C)[C@@H](CC(C)C)C(=O)N[C@H](C(=O)N2CCCCC2)CC(=O)N(C)[C@@H](C(C)C)C(=O)N[C@@H](CC(C)C)C(=O)N(C)[C@@H](CC)C(=O)N(C)[C@@H](Cc2ccccc2)C(=O)N[C@@H](CC(C)C)C(=O)N(C)[C@@H](Cc2ccccc2)C(=O)N(C)[C@@H](CC)C(=O)N[C@@H]([C@@H](C)O)C1=O [pd417] ([NMeV]L[NMeAbu][NMeF]L[NMeF][NMeAbu]T[Gly(N-(CH2)2OEt)][NMeL]D-Piperidide; lactam N-11) | 1 ×10⁻⁶ cm/s
CCOCCN1CC(=O)N(C)[C@@H](Cc2ccccc2)C(=O)N(C)[C@@H](CC(C)C)C(=O)N[C@@H](COC(C)(C)C)C(=O)N(C)[C@@H](CC(C)C)C(=O)N[C@H](C(=O)N2CCCCC2)CC(=O)N(C)CC(=O)N(C)[C@@H](Cc2ccccc2)C(=O)N[C@@H](C(C)C)C(=O)N(C)[C@@H](CC(C)C)C(=O)N[C@@H]([C@@H](C)O)C1=O [pd418] ([Sar][NMeF]V[NMeL]T[Gly(N-(CH2)2OEt)][NMeF][NMeL]S(tBu)[NMeL]D-Piperidide; lactam N-11) | 1.5 ×10⁻⁶ cm/s
CCCCN1CC(=O)N(C)[C@@H](CC(C)C)C(=O)N[C@H](C(=O)N2CCCCC2)CC(=O)N(C)[C@@H](CC)C(=O)N[C@@H](CC(C)C)C(=O)N(C)[C@@H](CC(C)C)C(=O)N(C)[C@@H](Cc2ccccc2)C(=O)N[C@@H](CC)C(=O)N(C)[C@@H](Cc2ccccc2)C(=O)N(CCOCC)CC(=O)N[C@@H]([C@@H](C)O)C1=O [pd419] ([NMeAbu]L[NMeL][NMeF][Abu][NMeF][Gly(N-(CH2)2OEt)]T[NBuGly][NMeL]D-Piperidide; lactam N-11) | 2.3 ×10⁻⁶ cm/s
CC[C@H]1C(=O)N(C)[C@@H](Cc2ccccc2)C(=O)N[C@@H](C)C(=O)N(C)[C@@H](CC(C)C)C(=O)N(C)[C@@H](CC)C(=O)N[C@@H]([C@@H](C)O)C(=O)N(CCOc2ccccc2)CC(=O)N(C)[C@@H](CC(C)C)C(=O)N[C@H](C(=O)N2CCCCC2)CC(=O)N(C)[C@@H](C(C)C)C(=O)N[C@@H](CC(C)C)C(=O)N1C [pd420] ([NMeV]L[NMeAbu][NMeF]A[NMeL][NMeAbu]T[X9][NMeL]D-Piperidide; lactam N-11) | 4.5 ×10⁻⁶ cm/s
